Measured values: ChEMBL document CHEMBL1155486, “From 6-aminoquinolone antibacterials to 6-amino-7-thiopyranopyridinylquinolone ethyl esters as inhibitors of Staphylococcus aureus multidrug efflux pumps” (2010)
Values after ≈ are worked out from the molar mass of the structure shown.

Columns and labels:
Staphylococcus aureus [1] = assay: Antibacterial activity against Staphylococcus aureus K1640 bearing S84L mutant GyrA and S80Y mutant GrlA by microdilution technique; type: functional
Staphylococcus aureus [2] = assay: Antibacterial activity against Staphylococcus aureus SA-1199B norA++ and A116E GrlA mutation by microdilution technique; type: functional
Staphylococcus aureus [3] = assay: Antibacterial activity against Staphylococcus aureus K1134 bearing wild-type GyrA and S80Y mutant GrlA by microdilution technique; type: functional
Staphylococcus aureus [4] = assay: Antibacterial activity against Staphylococcus aureus K1305 bearing wild-type GyrA and E84K mutant GrlA by microdilution technique; type: functional
Staphylococcus aureus [5] = assay: Antibacterial activity against Staphylococcus aureus ATCC 25923 by microdilution technique; type: functional
Staphylococcus aureus [6] = assay: Antibacterial activity against Staphylococcus aureus K1628 bearing S84L mutant GyrA and S80F mutant GrlA by microdilution technique; type: functional
Staphylococcus aureus [7] = assay: Antibacterial activity against wild-type norA expressing Staphylococcus aureus SA-1199 by microdilution technique; type: functional
Escherichia coli = assay: Antibacterial activity against Escherichia coli ATCC 25922 by microdilution technique; type: functional
Staphylococcus aureus [8] = assay: Antibacterial activity against methicillin and ciprofloxacin-resistant Staphylococcus aureus 25A by microdilution technique; type: functional
Staphylococcus aureus [9] = assay: Antibacterial activity against Staphylococcus aureus SA-K1902 bearing norA- deficient mutation by microdilution technique; type: functional
Staphylococcus aureus [10] = assay: Antibacterial activity against Staphylococcus aureus K1035 bearing wild-type GyrA and S80F mutant GrlA by microdilution technique; type: functional
Staphylococcus aureus [11] = assay: Antibacterial activity against Staphylococcus aureus SA-K1904 bearing norA++ efficient mutation by microdilution technique; type: functional
Staphylococcus aureus [12] = assay: Antibacterial activity against Staphylococcus aureus SA-1199B by EtBr efflux assay; type: functional
[13] = biological target: T1, Quinolone resistance protein NorA (Staphylococcus aureus) (UniProt P0A0J7); assay: Inhibition of NorA in Staphylococcus aureus SA-1199B assessed as reduction in ethidium bromide efflux at 50 uM by fluorimetry; set-up: scale not given: the % may be the effect or the level left
T1 sequence (whole entry): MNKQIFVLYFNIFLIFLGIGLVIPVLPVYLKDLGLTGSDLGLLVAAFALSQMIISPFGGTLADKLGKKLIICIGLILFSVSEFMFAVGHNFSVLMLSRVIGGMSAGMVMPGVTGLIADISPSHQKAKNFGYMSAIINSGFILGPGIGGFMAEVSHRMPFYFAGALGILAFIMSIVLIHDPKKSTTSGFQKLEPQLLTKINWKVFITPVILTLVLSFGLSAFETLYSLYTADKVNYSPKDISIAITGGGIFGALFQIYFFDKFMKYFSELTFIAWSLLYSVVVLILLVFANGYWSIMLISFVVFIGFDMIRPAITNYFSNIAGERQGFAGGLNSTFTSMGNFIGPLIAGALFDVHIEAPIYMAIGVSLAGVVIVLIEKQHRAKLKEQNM

Row | Structure (SMILES) | MIC (Staphylococcus aureus [1]) [µg/mL] | MIC (Staphylococcus aureus [2]) [µg/mL] | MIC (Staphylococcus aureus [3]) [µg/mL] | MIC (Staphylococcus aureus [4]) [µg/mL] | MIC (Staphylococcus aureus [5]) [µg/mL] | MIC (Staphylococcus aureus [6]) [µg/mL] | MIC (Staphylococcus aureus [7]) [µg/mL] | MIC (Escherichia coli) [µg/mL] | MIC (Staphylococcus aureus [8]) [µg/mL] | MIC (Staphylococcus aureus [9]) [µg/mL] | MIC (Staphylococcus aureus [10]) [µg/mL] | MIC (Staphylococcus aureus [11]) [µg/mL] | MIC50 (Staphylococcus aureus [12]) [µg/mL] | Activity [13] [%]
1 | Cc1c(N2CCc3ccccc3C2)c(N)cc2c(=O)c(C(=O)O)cn(C3CC3)c12 | 0.63 (≈ 1.62 µM) | ≤ 0.02 | ≤ 0.02 | ≤ 0.02 | ≤ 0.12 | 1.25 (≈ 3.21 µM) | ≤ 0.02 | ≤ 0.12 | ≤ 0.12 | ≤ 0.02 | ≤ 0.02 | ≤ 0.02 | – | –
2 | O=C(O)c1cn(C2CC2)c2cc(N3CCNCC3)c(F)cc2c1=O [CIPROFLOXACIN] | > 10 | 10 (≈ 30.2 µM) | 2.5 (≈ 7.54 µM) | 2.5 (≈ 7.54 µM) | 0.5 (≈ 1.51 µM) | > 10 | 0.31 (≈ 0.936 µM) | ≤ 0.12 | 32 (≈ 96.6 µM) | 0.31 (≈ 0.936 µM) | 2.5 (≈ 7.54 µM) | 2.5 (≈ 7.54 µM) | – | –
3 | CCOC(=O)c1cn(C2CC2)c2cc(N3CCNCC3)c(F)cc2c1=O [CIPROFLOXACIN ETHYL ESTER] | – | – | – | – | – | – | – | – | – | – | – | – | > 100 | 20.8
4 | CO/N=C1\CCSC2=C1CN(c1cc3c(cc1N)c(=O)c(C(=O)O)cn3C1CC1)CC2 | – | 12.5 (≈ 28.4 µM) | – | – | 2 (≈ 4.54 µM) | – | 3.13 (≈ 7.11 µM) | 16 (≈ 36.3 µM) | 8 (≈ 18.2 µM) | 1.56 (≈ 3.54 µM) | – | 3.13 (≈ 7.11 µM) | – | –
5 | Cc1c(N2CCC3=C(C2)/C(=N/O)C(C)CS3)c(N)cc2c(=O)c(C(=O)O)cn(C3CC3)c12 (stereo unspecified) | – | 1.25 (≈ 2.75 µM) | – | – | 0.16 (≈ 0.352 µM) | – | 0.31 (≈ 0.682 µM) | 0.5 (≈ 1.1 µM) | 8 (≈ 17.6 µM) | 0.31 (≈ 0.682 µM) | – | 0.31 (≈ 0.682 µM) | – | –
6 | CO/N=C1/C2=C(CCN(c3cc4c(cc3N)c(=O)c(C(=O)O)cn4C3CC3)C2)SCC1C (stereo unspecified) | – | 6.25 (≈ 13.7 µM) | – | – | 4 (≈ 8.8 µM) | – | 6.25 (≈ 13.7 µM) | 128 (≈ 282 µM) | 4 (≈ 8.8 µM) | 3.13 (≈ 6.89 µM) | – | 3.13 (≈ 6.89 µM) | – | –
7 | Nc1cc2c(=O)c(C(=O)O)cn(C3CC3)c2cc1N1CCC2=C(C1)/C(=N/O)CCS2 | – | 12.5 (≈ 29.3 µM) | – | – | 2 (≈ 4.69 µM) | – | 1.56 (≈ 3.66 µM) | 2 (≈ 4.69 µM) | 16 (≈ 37.5 µM) | 1.56 (≈ 3.66 µM) | – | 6.25 (≈ 14.7 µM) | – | –
8 | CC1CSC2=C(CN(c3cc4c(cc3N)c(=O)c(C(=O)O)cn4C3CC3)CC2)/C1=N/O (stereo unspecified) | – | 6.25 (≈ 14.2 µM) | – | – | 6.25 (≈ 14.2 µM) | – | 1.56 (≈ 3.54 µM) | 32 (≈ 72.6 µM) | 32 (≈ 72.6 µM) | 1.56 (≈ 3.54 µM) | – | 3.13 (≈ 7.11 µM) | – | –
